Laboratory results reported in patent US5624923A, “Tricyclic diazepine vasopressin antagonists and oxytocin antagonists” (priority 1995, dated 1997).
Each block holds one molecule with its values, some of them ahead of it.

Key:
[1] = target: T1, Rat Kidney Medullary V2 Receptors (Rattus norvegicus, UniProt Q00788); test: Binding Assay to Rat Kidney Medullary V2 Receptors; settings: rat kidney medulla membranes; read-out: V2 IC50
T1 construct: Medullary tissues from rat kidneys are dissected out; from tissue; host or cells: rat kidney medulla membranes
T1 sequence (Q00788 whole entry): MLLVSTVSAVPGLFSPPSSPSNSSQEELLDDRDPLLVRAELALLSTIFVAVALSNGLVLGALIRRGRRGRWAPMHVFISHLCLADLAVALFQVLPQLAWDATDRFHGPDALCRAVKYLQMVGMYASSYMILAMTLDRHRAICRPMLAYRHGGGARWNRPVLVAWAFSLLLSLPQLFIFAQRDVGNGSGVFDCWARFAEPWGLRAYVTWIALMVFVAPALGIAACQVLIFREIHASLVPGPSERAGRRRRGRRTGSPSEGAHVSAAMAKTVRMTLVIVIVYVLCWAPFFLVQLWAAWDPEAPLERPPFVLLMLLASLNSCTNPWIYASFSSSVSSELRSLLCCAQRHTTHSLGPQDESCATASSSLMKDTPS
Procedure, shortened: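 IC50 derived from competition curves; bound tritium counted by liquid scintillation after filtration. Rat medullary kidney membranes (Tris-HCl pH 7.4, BSA, PMSF) were incubated 120 min to equilibrium with radioligand and test compound (added in 50% DMSO). Nonspecific binding: 1.0 μM unlabeled ligand.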

Vasopressin V1 = Vasopressin V1 Antagonist Activity in Conscious Rats (vasopressin vasopressor response); format: in vivo, rat; design: Average Change: unit not given here; settings: for % Inhibition / Average Change: SHR
Procedure, shortened: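 Conscious rats are restrained supine, and under local 2% procaine a PE 10/20 cannula is passed through the ventral caudal tail artery into the lower abdominal aorta. The caudal vein is cannulated for intravenous dosing. Blood pressure is recorded with a Statham P23Db transducer, and vasopressin injections are repeated after compound dosing. Percent antagonism is calculated against the pre-drug vasopressor response taken as 100%.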

[2] = 10 mg/kg i.v., VAS 0.01 i.u./kg, 30 min
[3] = 10 mg/kg i.v., VAS 0.01 i.u./kg, 60 min
[4] = 10 mg/kg i.v., VAS 0.01 i.u./kg, 90 min
[5] = 10 mg/kg i.v., VAS 0.01 i.u./kg, 120 min
[6] = 10 mg/kg i.v., VAS 0.01 i.u./kg, 180 min
[7] = 10 mg/kg i.v., VAS 0.01 i.u./kg, 240 min
[8] = 10 mg/kg i.v., VAS 0.01 i.u./kg, 300 min
[9] = 10 mg/kg i.v., VAS 0.02 i.u./kg, 30 min
[10] = 10 mg/kg i.v., VAS 0.02 i.u./kg, 60 min
[11] = 10 mg/kg i.v., VAS 0.02 i.u./kg, 90 min
[12] = 10 mg/kg i.v., VAS 0.02 i.u./kg, 120 min
[13] = 10 mg/kg i.v., VAS 0.02 i.u./kg, 180 min
[14] = 10 mg/kg i.v., VAS 0.02 i.u./kg, 240 min
[15] = 10 mg/kg i.v., VAS 0.02 i.u./kg, 300 min
[16] = 10 mg/kg p.o., VAS 0.01 i.u./kg, 30 min
[17] = 10 mg/kg p.o., VAS 0.01 i.u./kg, 60 min
[18] = 10 mg/kg p.o., VAS 0.01 i.u./kg, 90 min
[19] = 10 mg/kg p.o., VAS 0.01 i.u./kg, 120 min
[20] = 10 mg/kg p.o., VAS 0.01 i.u./kg, 180 min
[21] = 10 mg/kg p.o., VAS 0.01 i.u./kg, 240 min
[22] = 10 mg/kg p.o., VAS 0.02 i.u./kg, 30 min
[23] = 10 mg/kg p.o., VAS 0.02 i.u./kg, 60 min
[24] = 10 mg/kg p.o., VAS 0.02 i.u./kg, 90 min
[25] = 10 mg/kg p.o., VAS 0.02 i.u./kg, 120 min
[26] = 10 mg/kg p.o., VAS 0.02 i.u./kg, 180 min
[27] = 10 mg/kg p.o., VAS 0.02 i.u./kg, 240 min

Structure (SMILES): Cc1ccccc1CC(=O)Nc1ccc(C(=O)N2Cc3cccn3Cc3ccccc32)cc1 [Example 93, N-[4(5H-Pyrrolo[2,1-c][1,4]benzodiazepin-10(11H)-ylcarbonyl)phenyl]-2-methylbenzeneacetamide]
IC50 [1]: 0.7 nM
% Inhibition (Vasopressin V1; [2]): 96%
Average Change (Vasopressin V1; [2]): 2
% Inhibition (Vasopressin V1; [3]): 94%
Average Change (Vasopressin V1; [3]): 3
% Inhibition (Vasopressin V1; [4]): 90%
Average Change (Vasopressin V1; [4]): 5
% Inhibition (Vasopressin V1; [5]): 88%
Average Change (Vasopressin V1; [5]): 6
% Inhibition (Vasopressin V1; [6]): 73%
Average Change (Vasopressin V1; [6]): 13.5
% Inhibition (Vasopressin V1; [7]): 74%
Average Change (Vasopressin V1; [7]): 13
% Inhibition (Vasopressin V1; [8]): 76%
Average Change (Vasopressin V1; [8]): 12
% Inhibition (Vasopressin V1; [9]): 94%
Average Change (Vasopressin V1; [9]): 4.5
% Inhibition (Vasopressin V1; [10]): 92%
Average Change (Vasopressin V1; [10]): 5.5
% Inhibition (Vasopressin V1; [11]): 90%
Average Change (Vasopressin V1; [11]): 7
% Inhibition (Vasopressin V1; [12]): 90%
Average Change (Vasopressin V1; [12]): 7
% Inhibition (Vasopressin V1; [13]): 78%
Average Change (Vasopressin V1; [13]): 15.5
% Inhibition (Vasopressin V1; [14]): 76%
Average Change (Vasopressin V1; [14]): 17
% Inhibition (Vasopressin V1; [15]): 74%
Average Change (Vasopressin V1; [15]): 18.5

Structure (SMILES): O=C(Nc1ccc(C(=O)N2Cc3ccc(Cn4ccnc4)n3Cc3ccccc32)cc1)c1ccc(Cl)cc1Cl [Example 582, 2,4-Dichloro-N-[4-[[3-(1H-imidazol-1-ylmethyl)-5H-pyrrolo[2,1-c][1,4]benzodiazepin-10(11H)-yl]carbonyl]phenyl]benzamide]
IC50 [1]: 14 nM
Max. % Inhibition (Vasopressin V1; 10 mg/kg i.v.): 75%
Time (of max. % inhibition) (Vasopressin V1; 10 mg/kg i.v.): 170 min

Structure (SMILES): Cc1c(F)cccc1C(=O)Nc1ccc(C(=O)N2Cc3cccn3Cc3ccccc32)c(Cl)c1 [Example 481, N-[4-(5H-pyrrolo[2,1-c][1,4]benzodiazepin-10(11H)-ylcarbonyl)-3-chlorophenyl]-3-fluoro-2-methylbenzamide]
IC50 [1]: 3.4 nM
Max. % Inhibition (Vasopressin V1; 30 mg/kg p.o.): 58%
Time (of max. % inhibition) (Vasopressin V1; 30 mg/kg p.o.): 80 min

Structure (SMILES): CC(=O)OC(C(=O)Nc1ccc(C(=O)N2Cc3cccn3Cc3ccccc32)cc1)c1ccccc1 (stereo not drawn) [Example 587, α-(Acetyloxy)-N-[4-(5H-pyrrolo[2,1-c][1,4]benzodiazepin-10(11H)-ylcarbonyl)phenyl]benzeneacetamide]
IC50 [1]: 22 nM
Max. % Inhibition (Vasopressin V1; 10 mg/kg i.v.): 75%
Time (of max. % inhibition) (Vasopressin V1; 10 mg/kg i.v.): 60 min

Continued, in another order:

IC50 [1]: 15 nM
Structure (SMILES): O=C(Nc1ccc(C(=O)N2Cc3cccn3Cc3ccccc32)cc1)c1c(Cl)cccc1Cl [Example 469, N-[4-(5H-pyrrolo[2,1-c][1,4]benzodiazepin-10(11H)-ylcarbonyl)phenyl]-2,6-dichlorobenzamide]
Max. % Inhibition (Vasopressin V1; 10 mg/kg i.v.): 69%
Time (of max. % inhibition) (Vasopressin V1; 10 mg/kg i.v.): 30 min

IC50 [1]: 13 nM
Structure (SMILES): CSc1ccccc1C(=O)Nc1ccc(C(=O)N2Cc3cccn3Cc3ccccc32)cc1 [Example 85, N-[4-(5H-Pyrrolo[2,1-c][1,4]benzodiazepin-10(11H)-ylcarbonyl)phenyl]-2-(methylthio)benzamide]
% Inhibition (Vasopressin V1; [2]): 83%
Average Change (Vasopressin V1; [2]): 4.5
% Inhibition (Vasopressin V1; [3]): 74%
Average Change (Vasopressin V1; [3]): 7
% Inhibition (Vasopressin V1; [4]): 64%
Average Change (Vasopressin V1; [4]): 9.5
% Inhibition (Vasopressin V1; [5]): 66%
Average Change (Vasopressin V1; [5]): 9
% Inhibition (Vasopressin V1; [6]): 42%
Average Change (Vasopressin V1; [6]): 15.5
% Inhibition (Vasopressin V1; [7]): 55%
Average Change (Vasopressin V1; [7]): 12
% Inhibition (Vasopressin V1; [8]): 5%
Average Change (Vasopressin V1; [8]): 12
% Inhibition (Vasopressin V1; [9]): 75%
Average Change (Vasopressin V1; [9]): 9
% Inhibition (Vasopressin V1; [10]): 73%
Average Change (Vasopressin V1; [10]): 9.5
% Inhibition (Vasopressin V1; [11]): 79%
Average Change (Vasopressin V1; [11]): 7.5
% Inhibition (Vasopressin V1; [12]): 82%
Average Change (Vasopressin V1; [12]): 6.5
% Inhibition (Vasopressin V1; [13]): 45%
Average Change (Vasopressin V1; [13]): 19.5
% Inhibition (Vasopressin V1; [14]): 49%
Average Change (Vasopressin V1; [14]): 18
% Inhibition (Vasopressin V1; [15]): 49%
Average Change (Vasopressin V1; [15]): 18

IC50 [1]: 14 nM
Structure (SMILES): O=C(Nc1ccc(C(=O)N2Cc3cccn3Cc3ccccc32)cc1)c1cc(Cl)ccc1Cl [Example 4, N-[4-(5H-pyrrolo[2,1-c][1,4]benzodiazepin-10(11H)-ylcarbonyl)phenyl]-2,5-dichlorobenzamide]
% Inhibition (Vasopressin V1; [16]): 6%
Average Change (Vasopressin V1; [16]): 44.5
% Inhibition (Vasopressin V1; [17]): 36%
Average Change (Vasopressin V1; [17]): 30.5
% Inhibition (Vasopressin V1; [18]): 19%
Average Change (Vasopressin V1; [18]): 38.5
% Inhibition (Vasopressin V1; [19]): 32%
Average Change (Vasopressin V1; [19]): 32.5
% Inhibition (Vasopressin V1; [20]): 25%
Average Change (Vasopressin V1; [20]): 35.5
% Inhibition (Vasopressin V1; [21]): 39%
Average Change (Vasopressin V1; [21]): 29
% Inhibition (Vasopressin V1; [22]): 27%
Average Change (Vasopressin V1; [22]): 36
% Inhibition (Vasopressin V1; [23]): 10%
Average Change (Vasopressin V1; [23]): 44.5
% Inhibition (Vasopressin V1; [24]): -5%
Average Change (Vasopressin V1; [24]): 52
% Inhibition (Vasopressin V1; [25]): -2%
Average Change (Vasopressin V1; [25]): 50.5
% Inhibition (Vasopressin V1; [26]): 11%
Average Change (Vasopressin V1; [26]): 44
% Inhibition (Vasopressin V1; [27]): 47%
Average Change (Vasopressin V1; [27]): 26
